How the values were obtained:
[1] = cell uptake assay (LC-MS/MS) in MV4-11
[2] = system: human myeloma cell lines (HMCL); assay: cell viability, panel of human myeloma cell lines +/- FKBP12 PROTAC; format: cell-based; settings: all myeloma cell lines tested
FKBP12 = FKBP12 (Homo sapiens, UniProt P62942); assay: NanoBRET FKBP12 in intact HEK293 cells; format: cell-based
[3] = in vitro metabolic study (intrinsic clearance); format: in vitro ADME; settings: intrinsic clearance (Clint) study, rebuttal letter
Description: 4.2. To strengthen the paper, the authors should consider conducting in vivo experiments to […]
a more comprehensive understanding of the therapeutic potential and pharmacokinetic […]
The current compounds were designed for mechanistic studies, not for in vivo experiments. To assess the possibility of animal studies we conducted an in vitro metabolic study for the two most advanced compounds (a1dj and b3c). […]
labile (see below). While we agree that it is exciting to explore the influence of the CellTrap effect on pharmacokinetic properties this must be explored in follow up studies, which require substantial medicinal chemistry optimization. With the current compounds we believe animal experiments are ethically not warranted.
4.3. Are there specific residues essential for the observed cooperativity? If so, empirically mapping these mutants and testing for a reduction in binding would help validate the structures and provide clues to the translatability of the CellTrap mechanism. […]
mediate the direct protein contacts to BRD4. To explore this, we measured binding of the homolog FKBP51, which differs in the loop/strand regions, to BRD4. […]
cooperativity for any compound, strongly supporting the relevance of the crystallographically observed contact. We discussed this in the text as:
In both ternary complexes, contacts to BRD4BD1 are formed by the tip of the so called 80s loop of […]

MYC mRNA = assay: wash-off experiment, MYC mRNA in MV4-11; format: cell-based, human
gene expression = assay: RNA sequencing, MV4-11; format: cell-based, human; settings: MV4-11, 6 h
Experimental: RNA was isolated using the Monarch Total RNA Isolation Kit. RNA quality was assessed using an Agilent TapeStation. All samples had calculated RINe values > 6 with a flat baseline. […] Samples were demultiplexed, and FastQ files were generated. Raw FASTQ reads were quality-filtered using fastp v1.3.2 to remove adapters, low-quality bases (Phred ≤ 5 in > 50% of read) and poly-N regions (> 10% N bases), retaining reads with Q20 ≥ 95% and Q30 ≥ 90%. GC content was calculated for clean reads. Filtered sequence reads were aligned to the human reference genome GRCh38 using HISAT2 v2.2.1, guided by GTF annotation. Mapped data were summarized on the gene level as Fragments Per Kilobase of transcript sequence per Millions base pairs sequenced (FPKM). Gene counts were quantified using featureCounts v2.0.6. Further data evaluation, normalization and pairwise differential expression analyses was done by DESeq2. For clustering, all differentially expressed genes were pooled as the differential gene set. FPKM values of genes were hierarchically clustered, rows were homogenized as Z-scores. For enrichment analysis of the differential expressed genes, cluster Profiler (Yu G, 2012) software was used on Gene Ontology (http://www.geneontology.org/) terms reflecting biological processes.

BRD4 = target: T1, BRD4 (Homo sapiens, UniProt O60885); assay: NanoBRET BRD4, transient BRD4-NanoLuc in HEK293T cells; format: cell-based; settings: intact HEK293 cells
T1 construct: full-length BRD4 fused to NanoLuc at N terminus; expressed in transfected cells; host or cells: HEK293T
Method in brief: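 BRD4 engagement measured in HEK293T cells transiently expressing N-terminal NanoLuc-BRD4 (20 h), with BRD Tracer-02 at its KD concentration. Cells equilibrated with serially diluted inhibitors for 2 h at 37 °C. Donor 450 nm/acceptor 610 nm BRET read; IC50 from normalized 3-parameter fit.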

PNT1A cells [4] = assay: co-culture live cell microscopy cell count, PNT1A; format: cell-based; settings: all concentrations
PNT1A cells [5] = assay: CellTiter-Glo cell viability, PNT1A; format: cell-based; settings: concentrations of up to 1 µM

FKBP12, sequence (P62942 whole entry): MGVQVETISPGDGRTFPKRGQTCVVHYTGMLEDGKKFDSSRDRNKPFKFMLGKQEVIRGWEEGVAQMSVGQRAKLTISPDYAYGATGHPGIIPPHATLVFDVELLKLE

| Compound | effect of prior BRD4 depletion on cellular compound levels ([1]; BRD4-degrading PROTAC 43) | concentration in the cellular fraction ([1]; MV4-11, 10 nM a1dj 2 h, mean across four independent experiments) [nM] | reduction of intracellular accumulation upon FKBP12 degradation by PROTAC 5a1, mean ([1]; MV4-11, 100 nM 5a1) [%] | approximated concentration in the cellular fraction ([1]; MV4-11, earlier manuscript version quoted in rebuttal) [µM] | additional cellular enrichment mediated by other FKBPs ([1]; abolished by competition with 10 µM 18-(S)Me) [%] | FKBP12-mediated share of cellular accumulation ([1]; abolished by prior FKBP12 depletion, earlier manuscript version quoted in rebuttal) [%] | cytotoxicity upon depletion of FKBP12 compared to JQ1 [2] | IC50 (FKBP12) [nM] | in vitro metabolic stability [3] | persistence of MYC repression after compound wash-out (MYC mRNA) | differentially expressed genes compared to JQ1-treated cells (gene expression) | IC50 (BRD4) [nM] | effect on PNT1A cells in co-culture (PNT1A cells [4]) | effect on PNT1A viability (PNT1A cells [5]) |
| --- | --- | --- | --- | --- | --- | --- | --- | --- | --- | --- | --- | --- | --- | --- |
| Cc1sc2c(c1C)C(c1ccc(Cl)cc1)=NC(CC(=O)NCCOCCn1cc(COCC3CN(C(C)c4ccccn4)C(=O)C4CCCC3N4S(=O)(=O)c3cc(Cl)cc(Cl)c3)nn1)c1nnc(C)n1-2 (centres unmarked) [a1dj] | did not affect cellular compound levels | 1680 ± 350 | 51 | > 1.8 | 22 | 58 | almost identical to JQ1 | 2.6 | metabolically labile | up to 24 h | about 300 genes | 653 |  |  |
| Cc1sc2c(c1C)C(c1ccc(Cl)cc1)=NC(CC(=O)N1CCC3(CC1)CC(n1cc(C4CN(Cc5ccccn5)C(=O)C5CCCC4N5S(=O)(=O)c4cc(Cl)cc(Cl)c4)nn1)C3)c1nnc(C)n1-2 (centres unmarked) [a13c] |  |  |  |  |  |  |  | 76 |  |  |  | 9060 | unaffected | did not affect |
| Cc1sc2c(c1C)C(c1ccc(C#CCNC(=O)COCCn3cc(C4CN(Cc5ccccn5)C(=O)C5CCCC4N5S(=O)(=O)c4cc(Cl)cc(Cl)c4)nn3)cc1)=NC(CC(=O)OC(C)(C)C)c1nnc(C)n1-2 (centres unmarked) [b3c] |  |  |  |  |  |  |  | 29 | metabolically labile |  | about 300 genes | 194 |  |  |
